Results from patent publication US5023264A, “Rapamycin oximes” (American Home Products Corporation, priority 1990, dated 1991).
In brackets after ≈: the same amount, converted by molar mass.

Experiments:
[1] = test system: immunosuppressive activity; assay: Standard pharmacological test procedures described supra (isomers of Example 1; overall immunosuppressive activity); design: species or system mouse; settings: results not presented for the inactive isomer
Experimental: (§1) Immunosuppressive activity was evaluated in an in vitro standard pharmacological test procedure to measure lymphocyte proliferation (LAF) and in two in vivo standard pharmacological test procedures. The first in vivo procedure was a popliteal lymph node (PLN) test procedure which measured the effect of compounds of this invention on a mixed lymphocyte reaction and the second in vivo procedure evaluated the survival time of a pinch skin graft.
(§2) Briefly, cells from the thymus of normal BALB/c mice are cultured for 72 hours with PHA and IL-1 and pulsed with tritiated thymidine during the last six hours. […] Cells are harvested and incorporated; radioactivity is determined. Inhibition of lymphoproliferation is assessed in percent change in counts per minute from non-drug treated controls. The results are expressed by the following ratio: [formula]
A mixed lymphocyte reaction (MLR) occurs when lymphoid cells from genetically distinct animals are combined in tissue culture. Each stimulates the other to undergo blast transformation which results in increased DNA synthesis that can be quantified by the incorporation of tritiated thymidine. […] On Day 3 and Day 4, tritiated thymidine is given i.p., b.i.d. On Day 5, the hind popliteal lymph nodes are removed and dissolved, and radioactivity counted. […] Percent suppression is calculated using the non-drug treated animals as allogenic control. […]

[2] = test system: Candida albicans ATCC 10231; assay: Antifungal plate test, MIC, strain ATCC 10231; format: cell-based; settings: plate disk test
Experimental: (§3) The following represents the typical procedure used. Compound to be tested was placed on sterile dried 1/4" plate disks, and allowed to dry. Agar plates were seeded with fungi and allowed to solidify. The impregnated disks were placed on the seeded Agar surface and incubated for the time required for the particular culture. Results are expressed in MIC (μg/ml) to inhibit growth.

[3] = test system: Candida albicans ATCC 38246; assay: Antifungal plate test, MIC, strain ATCC 38246; format: cell-based; settings: plate disk test
Experimental: as §3

[4] = test system: pinch skin graft rejection; assay: Survival time of pinch skin graft; format: in vivo, mouse (male DBA/2 donors, male BALB/c recipients); settings: for Skin Graft survival (days + SD): intraperitoneally, mean graft survival time ± S.D.
Experimental: as §1
The second in vivo test procedure is designed to determine the survival time of pinch skin graft from male DBA/2 donors transplanted to male BALB/c recipients. The method is adapted from Billingham R. E. and Medawar P. B., J. Exp. Biol. 28:385-(402), 1951. Briefly, a pinch skin graft from the donor is grafted on the dorsum of the recipient as a homograft, and an autograft is used as control in the same region. […] Untreated recipients serve as rejection control. The graft is monitored daily and observations are recorded until the graft becomes dry and forms a blackened scab. This is considered as the rejection day. The mean graft survival time (number of days±S.D.) of the drug treatment group is compared with the control group.
(§4) Transplanted pinch skin grafts are typically rejected within 6-7 days without the use of an immunosuppressive agent. […] (see, I. Roitt et al. Immunology, C. V. Moseby Co. 1989, p 12.8-12.11).

[5] = test system: thymocyte (lymphocyte) proliferation; assay: Comitogen-induced thymocyte proliferation procedure (LAF); format: cell-based; settings: in vitro, thymus cells of BALB/c mice, PHA and IL-1, 72 hours; ratio calculated as described (rapamycin 1.0)
Experimental: as §1, §2
(§5) *Calculation of ratios was described supra.
as §4

Candida albicans 3669 = assay: Antifungal plate test, MIC, strain 3669; format: cell-based; settings: plate disk test
Experimental: as §3

[6] = test system: mixed lymphocyte reaction in popliteal lymph node (host vs. graft); assay: Popliteal lymph node (PLN) test procedure, in vivo mixed lymphocyte reaction; design: species or system mouse (BALB/c donors, C3H recipients); settings: for PLN (ratio): p.o. daily Day 0 to Day 4, ratio calculated as described (rapamycin 1.0)
Experimental: as §1
A mixed lymphocyte reaction (MLR) occurs when lymphoid cells from genetically distinct animals are combined in tissue culture. Each stimulates the other to undergo blast transformation which results in increased DNA synthesis that can be quantified by the incorporation of tritiated thymidine. Since stimulating a MLR is a function of disparity at Major Histocompatibility antigens, an in vivo popliteal lymph node (PLN) test procedure closely correlates to host vs. graft disease. Briefly, irradiated spleen cells from BALB/c donors are injected into the right hind foot pad of recipient C3H mice. The drug is given daily, p.o. from Day 0 to Day 4. On Day 3 and Day 4, tritiated thymidine is given i.p., b.i.d. On Day 5, the hind popliteal lymph nodes are removed and dissolved, and radioactivity counted. The corresponding left PLN serves as the control for the PLN from the injected hind foot. Percent suppression is calculated using the non-drug treated animals as allogenic control. […] Results are expressed by the following ratio: [formula]
as §5, §4

[7] = test system: Candida albicans ATCC 38247; assay: Antifungal plate test, MIC, strain ATCC 38247; format: cell-based; settings: plate disk test
Experimental: as §3

[8] = test system: Candida albicans ATCC 38248; assay: Antifungal plate test, MIC, strain ATCC 38248; format: cell-based; settings: plate disk test
Experimental: as §3

transplant rejection = settings: cited from earlier work
Candida albicans = settings: particularly against Candida albicans, in vitro and in vivo; cited from earlier work
[9] = test system: experimental allergic encephalomyelitis, a model for multiple sclerosis; settings: cited from earlier work
IGE-like antibodies = settings: in vivo; cited from earlier work

Compound | MIC [2] | MIC [3] | Skin Graft survival (days + SD) [4] | LAF (ratio) [5] | MIC (Candida albicans 3669) | MIC [7] | MIC [8] | Immunosuppressive effect / inhibition of transplant rejection (transplant rejection) | also measured
CO[C@H]1C[C@@H]2CC[C@@H](C)[C@@](O)(O2)C(=O)C(=O)N2CCCC[C@H]2C(=O)O[C@H]([C@H](C)C[C@@H]2CC[C@@H](O)[C@H](OC)C2)CC(=O)[C@H](C)/C=C(\C)[C@@H](O)[C@@H](OC)C(=NO)[C@H](C)C[C@H](C)/C=C/C=C/C=C/1C (single isomer, unassigned) [isomerically pure mono-oxime, Rapamycin-27-oxime] |  |  |  |  |  |  |  |  | Biological activity of the isomers of Example 1 [1]: biologically inactive
CO[C@H]1C[C@@H]2CC[C@@H](C)[C@@](O)(O2)C(=O)C(=O)N2CCCC[C@H]2C(=O)O[C@H]([C@H](C)C[C@@H]2CC[C@@H](O)[C@H](OC)C2)CC(=O)[C@H](C)/C=C(\C)[C@@H](O)[C@@H](OC)C(=NOCc2ccccc2)[C@H](C)C[C@H](C)/C=C/C=C/C=C/1C [Example 2, Rapamycin-O-benzyl-27-oxime] | > 0.4 µg/mL | > 0.4 µg/mL | 9.3 ± 1.4 days | 0.87 | > 0.4 µg/mL | > 0.4 µg/mL | > 0.4 µg/mL |  | PLN (ratio) [6]: 1.39
CON=C1[C@H](C)C[C@H](C)/C=C/C=C/C=C(\C)[C@@H](OC)C[C@@H]2CC[C@@H](C)[C@@](O)(O2)C(=O)C(=O)N2CCCC[C@H]2C(=O)O[C@H]([C@H](C)C[C@@H]2CC[C@@H](O)[C@H](OC)C2)CC(=O)[C@H](C)/C=C(\C)[C@@H](O)[C@H]1OC [Example 3, Rapamycin-O-methyl-27-oxime] | 0.2 µg/mL (≈ 0.212 µM) | 0.05 µg/mL (≈ 0.053 µM) | 9.5 ± 1.4 days | 0.007 | 0.2 µg/mL (≈ 0.212 µM) | 0.2 µg/mL (≈ 0.212 µM) | 0.05 µg/mL (≈ 0.053 µM) |  | 
C=CC[C@@H]1/C=C(\C)C[C@H](C)C[C@H](OC)[C@H]2O[C@@](O)(C(=O)C(=O)N3CCCC[C@H]3C(=O)O[C@H](/C(C)=C/[C@@H]3CC[C@@H](O)[C@H](OC)C3)[C@H](C)[C@@H](O)CC1=O)[C@H](C)C[C@@H]2OC [FK-506] |  |  |  |  |  |  |  | effective as immunosuppressive agents | 
CO[C@H]1C[C@@H]2CC[C@@H](C)[C@@](O)(O2)C(=O)C(=O)N2CCCC[C@H]2C(=O)O[C@H]([C@H](C)C[C@@H]2CC[C@@H](O)[C@H](OC)C2)CC(=O)[C@H](C)/C=C(\C)[C@@H](O)[C@@H](OC)C(=O)[C@H](C)C[C@H](C)/C=C/C=C/C=C/1C [Rapamycin] |  |  | 12.0 ± 1.7 days |  |  |  |  | effective in inhibiting transplant rejection | Antifungal activity (Candida albicans): antifungal activity, particularly against Candida albicans, both in vitro and in vivo; Effect in experimental allergic encephalomyelitis model [9]: effective in the experimental allergic encephalomyelitis model; Inhibition of formation of IGE-like antibodies (IGE-like antibodies): effectively inhibited the formation of IGE-like antibodies
Rapamycin-27-oxime [Example 1] | 0.05 µg/mL | 0.2 µg/mL | 10.0 ± 1.6 days | 0.25 | 0.2 µg/mL | 0.05 µg/mL | 0.1 µg/mL |  | Skin graft survival time (in words) ([4]; compared with grafts without immunosuppressive agent, rejected within 6-7 days): increased survival time observed in the skin graft test procedure; T cell proliferation in the PLN test procedure (in words) ([6]; from negative PLN ratio): may cause T cell proliferation in the PLN test procedure; PLN (ratio) [6]: -1.40; Biological activity of the isomers of Example 1 [1]: active in the assays described supra
cyclosporin A |  |  |  |  |  |  |  | effective as immunosuppressive agents | 
